One may read the EC50 as the concentration at which the effect is half-maximal. Read a low EC50 as an effect from little substance.

The text below walks through data of patent publication US12351580B2, “NLRP3 modulators” (Innate Tumor Immunity, Inc., priority 2017, dated 2025).

The target in one assay is T1, TLR8 (Homo sapiens, UniProt Q9NR97).
T1 construct: host or cells: HEK-Blue cells (human HEK) co-expressing TLR8 and an NF-kB/AP1-inducible SEAP reporter
T1 sequence (Q9NR97 27-1041): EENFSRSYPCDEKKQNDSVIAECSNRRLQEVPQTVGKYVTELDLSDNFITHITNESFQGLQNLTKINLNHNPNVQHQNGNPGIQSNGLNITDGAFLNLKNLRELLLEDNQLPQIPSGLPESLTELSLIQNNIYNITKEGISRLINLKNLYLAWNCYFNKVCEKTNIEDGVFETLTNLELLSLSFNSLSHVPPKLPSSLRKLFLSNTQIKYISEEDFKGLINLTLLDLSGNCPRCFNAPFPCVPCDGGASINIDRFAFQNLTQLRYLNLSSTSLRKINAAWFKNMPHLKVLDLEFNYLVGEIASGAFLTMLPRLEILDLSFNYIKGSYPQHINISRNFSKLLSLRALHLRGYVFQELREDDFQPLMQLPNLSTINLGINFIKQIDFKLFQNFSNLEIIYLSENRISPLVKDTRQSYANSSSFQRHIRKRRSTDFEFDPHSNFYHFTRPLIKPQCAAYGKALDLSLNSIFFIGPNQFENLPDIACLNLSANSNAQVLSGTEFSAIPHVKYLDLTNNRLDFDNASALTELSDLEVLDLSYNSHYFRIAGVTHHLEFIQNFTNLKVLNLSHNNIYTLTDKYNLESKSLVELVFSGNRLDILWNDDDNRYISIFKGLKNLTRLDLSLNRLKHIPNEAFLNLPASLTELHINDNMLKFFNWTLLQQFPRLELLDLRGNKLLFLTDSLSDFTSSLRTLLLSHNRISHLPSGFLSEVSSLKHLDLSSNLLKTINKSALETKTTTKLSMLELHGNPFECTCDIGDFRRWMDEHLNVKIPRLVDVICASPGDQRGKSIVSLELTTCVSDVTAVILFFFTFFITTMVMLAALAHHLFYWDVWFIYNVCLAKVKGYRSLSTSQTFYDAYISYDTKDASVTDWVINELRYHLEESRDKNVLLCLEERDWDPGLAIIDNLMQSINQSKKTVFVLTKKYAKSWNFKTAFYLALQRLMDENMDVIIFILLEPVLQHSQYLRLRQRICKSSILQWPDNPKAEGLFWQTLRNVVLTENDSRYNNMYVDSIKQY
Briefly: In vitro human TLR8 binding reporter assay (HEK-Blue, NF-kB/AP1-inducible SEAP). The class given is cell-based. The gist of the method: (§1)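 Reporter cells are plated at 15,000 per well and rested 24 h. Next day, test compounds or DMSO are dispensed, followed by 18 h incubation at 37 °C, 5% CO2.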
On the technique in general: Reporter assays use an easily measured gene product as a stand-in for the process of interest.

The target in a further assay is T2, TLR7 (Homo sapiens, UniProt Q9NYK1).
T2 construct: host or cells: HEK-Blue cells (human HEK) co-expressing TLR7 and an NF-kB/AP1-inducible SEAP reporter
T2 sequence (Q9NYK1 27-1049): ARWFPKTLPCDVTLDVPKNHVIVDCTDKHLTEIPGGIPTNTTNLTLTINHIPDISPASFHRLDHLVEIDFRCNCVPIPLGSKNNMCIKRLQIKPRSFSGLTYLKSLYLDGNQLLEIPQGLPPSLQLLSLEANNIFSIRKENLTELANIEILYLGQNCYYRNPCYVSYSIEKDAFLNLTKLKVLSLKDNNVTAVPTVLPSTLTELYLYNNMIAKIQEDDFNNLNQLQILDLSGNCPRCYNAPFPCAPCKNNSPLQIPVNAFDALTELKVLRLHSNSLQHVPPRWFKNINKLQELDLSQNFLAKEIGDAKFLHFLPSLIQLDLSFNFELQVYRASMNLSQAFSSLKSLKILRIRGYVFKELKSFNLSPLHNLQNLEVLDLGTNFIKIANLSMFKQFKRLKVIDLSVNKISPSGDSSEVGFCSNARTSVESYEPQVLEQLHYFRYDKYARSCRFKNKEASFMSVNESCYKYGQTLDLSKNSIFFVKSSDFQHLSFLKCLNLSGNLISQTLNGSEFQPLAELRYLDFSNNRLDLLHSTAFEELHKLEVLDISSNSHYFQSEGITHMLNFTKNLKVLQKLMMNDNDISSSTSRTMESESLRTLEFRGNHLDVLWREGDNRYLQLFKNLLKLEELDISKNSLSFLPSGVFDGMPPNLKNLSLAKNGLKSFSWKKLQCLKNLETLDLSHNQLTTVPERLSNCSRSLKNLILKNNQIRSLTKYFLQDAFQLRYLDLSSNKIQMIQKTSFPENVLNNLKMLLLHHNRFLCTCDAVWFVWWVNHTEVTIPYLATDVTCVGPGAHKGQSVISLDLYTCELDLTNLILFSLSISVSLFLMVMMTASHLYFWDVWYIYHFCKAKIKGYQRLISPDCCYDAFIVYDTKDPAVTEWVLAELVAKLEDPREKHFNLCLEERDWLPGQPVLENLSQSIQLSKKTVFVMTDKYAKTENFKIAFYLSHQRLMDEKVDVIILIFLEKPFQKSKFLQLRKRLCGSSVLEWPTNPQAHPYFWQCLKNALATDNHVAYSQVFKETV
Briefly: In vitro human TLR7 binding reporter assay (HEK-Blue, NF-kB/AP1-inducible SEAP). The class given is cell-based. Particulars: activity range symbols. An outline of the steps:
as §1

The structures appear in SMILES notation.

For the compound `CCN(Cc1nc2c(N)nc3cc(-c4cc[nH]n4)ccc3c2[nH]1)C(=O)c1ccncc1` [Compound 450, N-{[4-amino-7-(1H-pyrazol-3-yl)-1H-imidazo[4,5-c]quinolin-2-yl]methyl}-N-ethylpyridine-4-carboxamide], the EC50 at TLR8 (activity range symbols) and at TLR7 was over 100 µM throughout.

As to `CCN(Cc1nc2c(N)nc3cc(-c4cc[nH]n4)ccc3c2[nH]1)C(=O)c1cn(C)c2ccccc12` [Compound 451, N-{[4-amino-7-(1H-pyrazol-3-yl)-1H-imidazo[4,5-c]quinolin-2-yl]methyl}-N-ethyl-1-methyl-1H-indole-3-carboxamide], the EC50 was 20 to 100 µM on TLR8 (activity range symbols) and over 100 µM on TLR7.

For `CCN(Cc1nc2c(N)nc3cc(-c4cc[nH]n4)ccc3c2[nH]1)C(=O)c1ccc(Cl)cc1` [Compound 452, N-{[4-amino-7-(1H-pyrazol-3-yl)-1H-imidazo[4,5-c]quinolin-2-yl]methyl}-4-chloro-N-ethylbenzamide], the EC50 is over 62 µM on TLR8 (numeric bounds) and over 100 µM on TLR7.
